The source of these data is patent US9428512B2, “Compounds” (GlaxoSmithKline LLC, priority 2012, dated 2016).

Assay [1] concerns IFN-α induction in human whole blood. Briefly: Induction of Interferon-α using fresh human whole blood (WB). It counts as cell-based. The conditions noted are these: three donors, overnight incubation, cytokine release as % of 2 μM resiquimod control, read-out: mean pEC50 for IFN-α (converted). The protocol:
(§1) Assay for the Induction of Interferon-α and TNF-α Using Fresh Human Whole Blood (WB)
(§2) Compounds were prepared at 100× required concentration in DMSO in flat-bottom microtitre plates at a volume of 1.5 μL. Columns 1-10 contained a 1 in 4 serial dilution of the test compound. Included on each plate was a serial dilution of the TLR7/8 agonist resiquimod as a standard and Column 11 contained 1.5 μl of 200 μM resiquimod (giving a 2 μM final concentration, used to define the approximate maximal response to resiquimod). Each compound was assayed in duplicate for each donor.
(§3) Blood samples from three human donors were collected into sodium heparin (10 U/ml). 150 μl of whole Blood was dispensed into Col 1 to 11 of assay plates containing 1.5 μl of test compound or standard in DMSO. Plates were placed in an incubator overnight (37° C., 95% air, 5% CO2). Following the overnight incubation, plates were removed from the incubator & mixed on an orbital shaker for approximately 1 minute. 100 μl of 0.9% saline was added to each well and the plates mixed again on an orbital shaker. Plates were then centrifuged (2500 rpm, 10 mins), after which a sample of plasma was removed using a Biomek FX and assayed for both IFN-α and TNF-α using the MSD (Mesoscale Discovery) electrochemiluminescence assay platform. The IFN-α assay was carried out similarly to that described above. The TNF-α assay was carried out as per kit instructions (Cat No K111BHB).
(§4) Cytokine released was expressed as a percentage of the 2 μM resiquimod control (column 11). This percentage was plotted against compound concentration and the pEC50 for the response determined by non-linear least squares curve fitting. For the IFN-α responses, generally a 4 parameter logistic model was selected. For the TNF-α responses where a clear maximum response was obtained (i.e. a well defined plateau in the response was observed) then a 4 parameter model was generally used. If the upper asymptote of the curve wasn't well defined then the curve fitting was generally constrained to a maximal response of 100% (i.e. to the response to 2 μM resiquimod) or to the response of the highest concentration tested if this was greater than the resiquimod response. Some curves were bell shaped for one or both cytokines and the cytokine data on the down slope of the bell shaped response (i.e. concentrations above those giving the maximal response) were generally excluded from the fit, usually with the exception of the concentration immediately above the peak response. Curve fitting thus concentrated on the up slope of the dose response curve.

In assay [2] the test system is TNF-α induction in human whole blood. Kind of assay: Induction of TNF-α using fresh human whole blood (WB). It counts as cell-based. The conditions noted are these: three donors, overnight incubation, cytokine release as % of 2 μM resiquimod control, read-out: mean pEC50 for TNF-α (converted). As to the method:
as §1, §2, §3, §4

Some results are limits rather than exact numbers.

As for `CCCCc1nc(N)c2[nH]c(C)c(CCCCCN3CCN(C(C)C)CC3)c2n1` [Example 3, 2-Butyl-7-(5-(4-isopropylpiperazin-1-yl)pentyl)-6-methyl-5H-pyrrolo[3,2-d]pyrimidin-4-amine], the EC50 was at most 1.58 µM in assay [1] and at least 5.01 µM in assay [2].
On the same counts, the results for `CCCCc1nc(N)c2[nH]cc(CCCN3CCN(CC)CC3)c2n1` [Example 6, 2-Butyl-7-(3-(4-ethylpiperazin-1-yl)propyl)-5H-pyrrolo[3,2-d]pyrimidin-4-amine] are at most 1.58 µM and at least 5.01 µM.
Taken in the same sequence, the figures for `CCCCc1nc(N)c2[nH]cc(CCCCN3CCN(C(C)C)CC3)c2n1` [Example 7] were at most 1.58 µM and at least 5.01 µM.
As to `CCCCc1nc(N)c2[nH]cc(CCCN3CCNCC3)c2n1` [Example 5, 2-Butyl-7-(3-(piperazin-1-yl)propyl)-5H-pyrrolo[3,2-d]pyrimidin-4-amine], the EC50 in assay [1] is at most 1.58 µM; in assay [2], at least 5.01 µM.
Taken in the same sequence, the figures for `CCCCc1nc(N)c2[nH]cc(CCCCCN3CCNCC3)c2n1` [Example 1, 2-Butyl-7-(5-(piperazin-1-yl)pentyl)-5H-pyrrolo[3,2-d]pyrimidin-4-amine] were at most 1.58 µM and at least 5.01 µM.
On the same counts, the results for `CCCCc1nc(N)c2[nH]c(C)c(CCCCCN3CCN(CC)CC3)c2n1` [Example 4, 2-Butyl-7-(5-(4-ethylpiperazin-1-yl)pentyl)-6-methyl-5H-pyrrolo[3,2-d]pyrimidin-4-amine] are at most 1.58 µM and at least 5.01 µM.
`CCCCc1nc(N)c2[nH]cc(CCCCCN3CCN(C(C)C)CC3)c2n1` [Example 2, 2-Butyl-7-(5-(4-isopropylpiperazin-1-yl)pentyl)-5H-pyrrolo[3,2-d]pyrimidin-4-amine]: the figures for the EC50 in assay [1] and in assay [2] were at most 1.58 µM and at least 5.01 µM, respectively.
